According to US20120244567A1, “HUMAN EMBRYONIC STEM CELLS FOR HIGH THROUGHOUT DRUG SCREENING” (BUCK INSTITUTE FOR RESEARCH ON AGING, priority 2009, published 2012):
Counter-ions that a name gives are not always drawn.

How the values were obtained:
hESC-derived NSCs = assay: ATP assay in hESC-derived NSCs (96-well, primary screen and retest); format: cell-based, human; design: cytotoxicity: dose or concentration left out as unconfirmed; toxicity to NSCs (reduced ATP concentrations) / ATP levels in NSC population: unit of the concentration uncertain
Method: EBs were then cultured for additional 2-3 days in suspension in neural induction media containing DMEM/F12 with Glutamax, 1×NEAA, 1×N2 and FGF2 (20 ng/ml) prior to attachment on cell culture plates. […] To obtain a pure population of NSCs, rosettes were manually isolated and dissociated into single cells using Accutase. The NSCs population was expanded in Neurobasal media containing 1×NEAA, 1×L-Glutamine (2 mM), 1×B27, LIF and FGF2 20 ng/ml.
Media was changed every day for hESCs and every other day for NSCs and additionally changed prior to drug treatment. The cells were treated with compounds from the NINDS library diluted in […] of either ESC or NSC media to a final concentration of 2.5 mM in 0.01% DMSO. […] For all sampling, ESC and NSC plates were processed in parallel for one drug or control condition at a time.
For ATP measurements, the media was removed, cells were washed 1× in milliQ water and reconstituted in […] ATP-Lite Mammalian Lysis Buffer and shaken for 5 minutes. Two […] aliquots of lysed cells were replated onto separate 96 well plates for later protein measurements.
To identify compounds that are toxic to hESCs, hESC-derived NSCs, or both, we screened 720 FDA-approved drugs of the NINDS collection by testing the toxicity of each drug at a dose of 2.5 mM. For endpoint measurement of cell death caused by drug toxicity, we used a widely accepted ATP assay that measures changes in ATP level as an indicator of cellular response to cell death. In this assay, total ATP content per well was measured and normalized to the total cellular protein.
Three concentrations of each compound (1 mM, 2.5 mM and 10 mM) were used in the retest.

NSCs = assay: Cell death observed in NSCs in 35-mm dishes; format: cell-based, human
Description: NSCs and dopaminergic neurons grown in 35-mm dishes were exposed to amiodarone HCl.

`CCCCc1oc2ccccc2c1C(=O)c1cc(I)c(OCCN(CC)CC)c(I)c1` [Amiodarone Hydrochloride] was tested, and the “ATP levels in NSC population” value (hESC-derived NSCs; 10 (unit uncertain), 48 h (FIG. 5)) was “less than 15 % of the control mean”, the cytotoxicity (hESC-derived NSCs; Homo sapiens, NINDS primary screen, 48 hours, read-out: NSC ATP values below the control mean) was no less than 15% and the “effect on NSC survival among dose responsive compounds” value (hESC-derived NSCs; retest, FIG. 2 panel B) was “most dramatic effect on NSC survival”. For the same compound, the “time after drug exposure at which cell death was observed in NSCs” value (NSCs; 35-mm dishes) was 2 h, the “cell death in NSCs” value (NSCs; by 8 hours, 35-mm dishes) was “more than 90%” and the “cell death in similarly treated NSCs” value (NSCs; within one hour of drug administration) was “massive cell death”.
